Test results reported in patent US20080292580A1, “Treatment of Inflammatory Diseases” (UNIVERSITY COLLEGE LONDON HOSPITALS NHS FOUNDATION, priority 2004, published 2008).

Test system: normal mice
Assay: Toxic effects of PEG-saline infusion in normal mice
Details: mouse, in vivo
Protocol: In this example, the toxic effects of high molecular weight polyethylene glycol at high concentrations were compared to the effects of low molecular weight polyethylene glycol at even higher concentrations.
Normal mice, which were not subjected to zymozan or lipopolysaccharide injections, were infused (25 ml/kg) with either PEG-200-saline solution at a PEG-200 concentration of 100 mg/ml or PEG-4000-saline solution at a PEG-4000 concentration of 30 mg/ml.

## polyethylene glycol [PEG 200-saline]
  survival of normal mice: survived
